Measurements: ChEMBL document CHEMBL1949541, “Discovery of 7-arylsulfonyl-1,2,3,4, 4a,9a-hexahydro-benzo[4,5]furo[2,3-c]pyridines: identification of a potent and selective 5-HT₆ receptor antagonist showing activity in rat social recognition test” (Bioorg Med Chem Lett, 2012)

Assays:
[1] = target: T1, 5-hydroxytryptamine receptor 6 (Homo sapiens, UniProt P50406); experiment: Antagonist activity at human 5HT6 receptor expressed in human astrocytoma cells assessed as inhibition of cAMP production; format: functional, cell-based
[2] = target: T1, 5-hydroxytryptamine receptor 6; experiment: Displacement of [3H]LSD from human recombinant 5HT6 receptor
[3] = target: 5-hydroxytryptamine receptor 6 (Rattus norvegicus, UniProt P31388); experiment: Displacement of [3H]LSD from rat recombinant 5HT6 receptor
Rattus norvegicus [4] = experiment: (§1) Oral bioavailability in rat; format: ADME, organism-based; conditions: in vivo
Rattus norvegicus [5] = experiment: AUC in po dosed rat; format: ADME, organism-based, Plasma; conditions: in vivo
Rattus norvegicus [6] = experiment: Volume of distribution in rat at 1 mg/kg, iv; format: ADME, organism-based; set-up: dose 1 mg/kg, route intravenous; conditions: in vivo
[7] = Ratio of drug uptake in brain to plasma in rat at 5 mg/kg, po; format: ADME, organism-based; set-up: dose 5 mg/kg, route oral; conditions: read-out: BPR
[8] = Oral bioavailability in rat at 5 mg/kg at 24 hrs; format: ADME, organism-based; conditions: in vivo
Rattus norvegicus [9] = experiment: Half life in rat at 1 mg/kg, iv; format: ADME, organism-based; set-up: dose 1 mg/kg, route intravenous; conditions: in vivo
[10] = as §1; format: ADME, organism-based; conditions: in vivo
[11] = target: Muscarinic acetylcholine receptor M2 (Homo sapiens) (UniProt P08172); conditions: 10 uM
Description: Inhibition of M2 receptor at 10 uM

[12] = target: 5-hydroxytryptamine receptor 7 (Homo sapiens) (UniProt P34969); experiment: Inhibition of human 5HT7 at 10 uM
[13] = target: T2, 5-hydroxytryptamine receptor 2A (Homo sapiens, UniProt P28223); experiment: Inhibition of human 5HT2A at 10 uM
[14] = target: Muscarinic acetylcholine receptor M1 (Homo sapiens) (UniProt P11229); conditions: 10 uM
Description: Inhibition of M1 receptor at 10 uM

[15] = target: 5-hydroxytryptamine receptor 5A (Homo sapiens) (UniProt P47898); experiment: Inhibition of human 5HT5A at 10 uM
[16] = target: 5-hydroxytryptamine receptor 2C (Homo sapiens) (UniProt P28335); experiment: Inhibition of human 5HT2C at 10 uM
[17] = target: T3, Sodium-dependent dopamine transporter (Homo sapiens, UniProt Q01959); conditions: 10 uM
Description: Inhibition of DA transporter at 10 uM

[18] = target: 5-hydroxytryptamine receptor 1A (Homo sapiens) (UniProt P08908); experiment: Inhibition of human 5HT1A at 10 uM
[19] = target: Muscarinic acetylcholine receptor M4 (Homo sapiens) (UniProt P08173); conditions: 10 uM
Description: Inhibition of M4 receptor at 10 uM

[20] = target: 5-hydroxytryptamine receptor 3A (Homo sapiens) (UniProt P46098); experiment: Inhibition of human 5HT3 at 10 uM
[21] = target: T4, 5-hydroxytryptamine receptor 2B (Homo sapiens, UniProt P41595); experiment: Inhibition of human 5HT2B at 10 uM
[22] = target: 5-hydroxytryptamine receptor 1B (Rattus norvegicus) (UniProt P28564); experiment: Inhibition of rat […] at 10 uM
[23] = target: T5, Sodium-dependent noradrenaline transporter (Homo sapiens, UniProt P23975); conditions: 10 uM
Description: Inhibition of NA transporter at 10 uM

Rattus norvegicus [24] = experiment: Antiamnesic activity in ip dosed rat assessed as decrease in ratio of investigation duration of familiar juvenile rat administered 120 mins prior to test by social recognition test; format: functional, organism-based
Rattus norvegicus [25] = experiment: Antiamnesic activity in rat assessed as decrease in ratio of investigation duration of familiar juvenile rat at 0.3 mg/kg, ip administered 120 mins prior to test by social recognition test; format: functional; set-up: scale not given: the % may be the effect or the level left; conditions: route intraperitoneal
[26] = Aqueous solubility at pH 2; format: physicochemical; conditions: buffer
[27] = target: Muscarinic acetylcholine receptor M2 (Homo sapiens, UniProt P08172); experiment: Inhibition of M2 receptor
Cytochrome P450 1A2 = Cytochrome P450 1A2 (Homo sapiens, UniProt P05177); experiment: Inhibition of CYP 1A2; format: ADME
Cytochrome P450 2D6 = Cytochrome P450 2D6 (Homo sapiens, UniProt P10635); experiment: Inhibition of CYP 2D6; format: ADME
[28] = target: Voltage-gated inwardly rectifying potassium channel KCNH2 (Homo sapiens, UniProt Q12809); experiment: Inhibition of human ERG by patch clamp assay
Cytochrome P450 3A4 = Cytochrome P450 3A4 (Homo sapiens, UniProt P08684); experiment: Inhibition of CYP 3A4; format: ADME
Cytochrome P450 2C9 = Cytochrome P450 2C9 (Homo sapiens, UniProt P11712); experiment: Inhibition of CYP 2C9; format: ADME
[29] = Half life in human liver microsomes; format: ADME, Microsome
[30] = Half life in dog liver microsomes; format: ADME, Canis lupus familiaris, Microsome
[31] = Plasma protein binding in rat; format: ADME, cell-free; conditions: read-out: PPB (converted)
[32] = target: Muscarinic acetylcholine receptor M4 (Homo sapiens, UniProt P08173); experiment: Inhibition of M4 receptor
[33] = target: T4, 5-hydroxytryptamine receptor 2B; experiment: Inhibition of human 5HT2B
[34] = target: T3, Sodium-dependent dopamine transporter; experiment: Inhibition of DA transporter
[35] = target: Muscarinic acetylcholine receptor M1 (Homo sapiens, UniProt P11229); experiment: Inhibition of M1 receptor
Cytochrome P450 2C19 = Cytochrome P450 2C19 (Homo sapiens, UniProt P33261); experiment: Inhibition of CYP 2C19; format: ADME
[36] = target: T2, 5-hydroxytryptamine receptor 2A; experiment: Inhibition of human 5HT2A
[37] = Aqueous solubility at pH 7.4; format: physicochemical; conditions: buffer
[38] = Half life in rat liver microsomes; format: ADME, Microsome
[39] = Half life in mouse liver microsomes; format: ADME, Microsome
Rattus norvegicus [40] = experiment: Antiamnesic activity in rat assessed as decrease in ratio of investigation duration of familiar juvenile rat at 1 mg/kg, ip administered 120 mins prior to test by social recognition test; format: functional; set-up: scale not given: the % may be the effect or the level left; conditions: route intraperitoneal
[41] = target: T5, Sodium-dependent noradrenaline transporter; experiment: Inhibition of NA transporter
[42] = Inhibition of calcium channel-L type
[43] = Apparent permeability from apical to basal side of MDCK2-MDR1; format: ADME, cell-based, Canis lupus familiaris, MDCK-II; conditions: dog, MDCK-MDR1
[44] = Plasma protein binding in human; format: ADME, cell-free; conditions: read-out: PPB (converted)
[45] = target: 5-hydroxytryptamine receptor 2C (Homo sapiens, UniProt P28335); experiment: Inhibition of human 5HT2C
Rattus norvegicus [46] = experiment: Antiamnesic activity in rat assessed as decrease in ratio of investigation duration of familiar juvenile rat at 3 mg/kg, ip administered 120 mins prior to test by social recognition test; format: functional; set-up: scale not given: the % may be the effect or the level left; conditions: route intraperitoneal

T1 sequence (P50406 whole entry): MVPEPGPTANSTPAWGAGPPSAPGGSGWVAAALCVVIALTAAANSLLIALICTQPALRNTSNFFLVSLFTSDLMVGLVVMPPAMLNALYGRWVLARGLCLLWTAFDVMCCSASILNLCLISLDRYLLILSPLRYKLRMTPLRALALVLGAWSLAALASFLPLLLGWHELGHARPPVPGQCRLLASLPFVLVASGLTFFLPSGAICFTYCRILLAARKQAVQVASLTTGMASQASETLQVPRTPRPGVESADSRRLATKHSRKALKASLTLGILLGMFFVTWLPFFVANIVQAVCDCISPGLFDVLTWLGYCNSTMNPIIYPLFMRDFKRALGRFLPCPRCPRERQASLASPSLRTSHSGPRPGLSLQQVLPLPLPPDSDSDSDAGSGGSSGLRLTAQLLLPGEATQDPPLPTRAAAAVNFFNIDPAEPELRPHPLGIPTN
Chain of 5-hydroxytryptamine receptor 6 (Rattus norvegicus, UniProt P31388) (P31388 whole entry): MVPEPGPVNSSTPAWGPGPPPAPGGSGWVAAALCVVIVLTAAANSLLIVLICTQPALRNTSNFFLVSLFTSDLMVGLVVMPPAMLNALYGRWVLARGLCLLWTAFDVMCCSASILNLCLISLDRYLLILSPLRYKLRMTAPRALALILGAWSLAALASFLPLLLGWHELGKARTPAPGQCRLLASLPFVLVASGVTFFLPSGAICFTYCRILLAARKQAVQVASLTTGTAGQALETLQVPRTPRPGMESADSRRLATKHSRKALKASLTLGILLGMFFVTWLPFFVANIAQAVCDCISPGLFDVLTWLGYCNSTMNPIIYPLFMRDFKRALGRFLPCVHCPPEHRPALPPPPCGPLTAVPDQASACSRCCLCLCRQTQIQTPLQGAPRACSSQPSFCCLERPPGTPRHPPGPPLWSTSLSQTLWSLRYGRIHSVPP
T5 sequence (P23975 whole entry): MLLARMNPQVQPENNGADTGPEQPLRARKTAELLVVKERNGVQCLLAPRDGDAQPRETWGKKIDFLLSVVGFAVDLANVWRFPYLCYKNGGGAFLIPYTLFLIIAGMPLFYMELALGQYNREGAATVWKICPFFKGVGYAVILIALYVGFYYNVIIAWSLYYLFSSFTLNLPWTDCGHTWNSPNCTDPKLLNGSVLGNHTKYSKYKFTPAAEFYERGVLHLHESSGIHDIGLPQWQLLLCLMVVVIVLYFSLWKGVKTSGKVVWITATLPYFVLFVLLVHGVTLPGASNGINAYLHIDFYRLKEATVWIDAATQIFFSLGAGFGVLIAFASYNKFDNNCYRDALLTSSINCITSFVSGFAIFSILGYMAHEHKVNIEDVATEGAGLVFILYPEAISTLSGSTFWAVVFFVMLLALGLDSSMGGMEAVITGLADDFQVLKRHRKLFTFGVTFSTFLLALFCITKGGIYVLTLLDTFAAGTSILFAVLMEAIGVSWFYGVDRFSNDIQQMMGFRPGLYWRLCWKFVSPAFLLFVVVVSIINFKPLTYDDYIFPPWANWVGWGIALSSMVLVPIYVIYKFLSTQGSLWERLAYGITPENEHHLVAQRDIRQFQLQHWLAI
T4 sequence (P41595 whole entry): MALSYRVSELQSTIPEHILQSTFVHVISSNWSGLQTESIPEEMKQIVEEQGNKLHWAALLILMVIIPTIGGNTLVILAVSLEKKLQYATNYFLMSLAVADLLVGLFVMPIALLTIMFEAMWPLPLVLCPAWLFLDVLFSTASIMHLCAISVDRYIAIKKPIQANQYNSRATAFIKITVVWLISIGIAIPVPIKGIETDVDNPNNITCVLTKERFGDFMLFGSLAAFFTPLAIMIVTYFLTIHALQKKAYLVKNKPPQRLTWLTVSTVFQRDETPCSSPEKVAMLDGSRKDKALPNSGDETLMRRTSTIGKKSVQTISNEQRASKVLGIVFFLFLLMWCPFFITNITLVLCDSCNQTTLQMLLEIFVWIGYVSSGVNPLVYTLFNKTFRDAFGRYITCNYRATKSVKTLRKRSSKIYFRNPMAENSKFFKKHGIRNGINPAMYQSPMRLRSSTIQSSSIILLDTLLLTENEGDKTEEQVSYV
T2 sequence (P28223 whole entry): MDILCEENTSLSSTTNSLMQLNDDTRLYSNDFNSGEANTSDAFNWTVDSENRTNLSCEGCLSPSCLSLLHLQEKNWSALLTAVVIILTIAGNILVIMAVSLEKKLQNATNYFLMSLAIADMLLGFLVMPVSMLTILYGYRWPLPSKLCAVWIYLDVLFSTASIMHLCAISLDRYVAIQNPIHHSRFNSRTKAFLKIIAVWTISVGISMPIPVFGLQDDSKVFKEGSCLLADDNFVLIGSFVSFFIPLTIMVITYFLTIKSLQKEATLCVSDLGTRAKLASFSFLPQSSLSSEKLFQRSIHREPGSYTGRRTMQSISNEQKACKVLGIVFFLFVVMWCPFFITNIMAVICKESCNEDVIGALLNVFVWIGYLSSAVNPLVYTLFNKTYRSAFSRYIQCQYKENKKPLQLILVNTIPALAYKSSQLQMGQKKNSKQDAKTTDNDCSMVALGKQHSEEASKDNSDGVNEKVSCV
T3 sequence (Q01959 whole entry): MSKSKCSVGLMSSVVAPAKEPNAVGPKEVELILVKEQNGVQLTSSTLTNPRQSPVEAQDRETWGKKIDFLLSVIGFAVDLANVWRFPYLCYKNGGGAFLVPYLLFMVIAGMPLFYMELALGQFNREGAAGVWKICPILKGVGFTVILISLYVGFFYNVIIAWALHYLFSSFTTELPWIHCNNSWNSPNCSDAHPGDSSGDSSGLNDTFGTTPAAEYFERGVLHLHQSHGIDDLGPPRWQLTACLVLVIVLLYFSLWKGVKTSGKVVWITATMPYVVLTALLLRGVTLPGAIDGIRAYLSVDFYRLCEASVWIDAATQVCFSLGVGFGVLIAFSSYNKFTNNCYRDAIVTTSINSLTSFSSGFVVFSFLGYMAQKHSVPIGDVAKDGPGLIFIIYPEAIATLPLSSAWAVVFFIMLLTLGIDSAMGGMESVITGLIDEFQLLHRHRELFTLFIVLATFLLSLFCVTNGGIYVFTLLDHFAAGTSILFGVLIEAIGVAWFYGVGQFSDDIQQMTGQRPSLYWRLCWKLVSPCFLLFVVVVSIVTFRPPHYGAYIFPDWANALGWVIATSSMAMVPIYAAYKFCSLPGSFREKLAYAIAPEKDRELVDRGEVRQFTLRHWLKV
Chain of 5-hydroxytryptamine receptor 7 (Homo sapiens) (P34969 whole entry): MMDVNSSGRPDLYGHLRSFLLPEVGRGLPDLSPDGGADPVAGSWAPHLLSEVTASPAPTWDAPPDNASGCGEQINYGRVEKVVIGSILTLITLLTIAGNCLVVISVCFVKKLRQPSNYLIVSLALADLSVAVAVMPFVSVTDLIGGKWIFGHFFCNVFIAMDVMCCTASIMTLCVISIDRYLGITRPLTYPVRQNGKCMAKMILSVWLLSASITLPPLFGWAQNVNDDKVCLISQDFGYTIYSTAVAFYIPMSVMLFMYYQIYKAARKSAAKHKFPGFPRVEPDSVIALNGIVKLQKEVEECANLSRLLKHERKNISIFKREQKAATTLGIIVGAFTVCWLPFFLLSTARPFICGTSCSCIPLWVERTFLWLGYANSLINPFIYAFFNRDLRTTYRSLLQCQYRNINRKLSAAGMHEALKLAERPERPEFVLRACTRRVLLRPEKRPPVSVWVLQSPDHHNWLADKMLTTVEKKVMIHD
Chain of Cytochrome P450 2D6 (P10635 whole entry): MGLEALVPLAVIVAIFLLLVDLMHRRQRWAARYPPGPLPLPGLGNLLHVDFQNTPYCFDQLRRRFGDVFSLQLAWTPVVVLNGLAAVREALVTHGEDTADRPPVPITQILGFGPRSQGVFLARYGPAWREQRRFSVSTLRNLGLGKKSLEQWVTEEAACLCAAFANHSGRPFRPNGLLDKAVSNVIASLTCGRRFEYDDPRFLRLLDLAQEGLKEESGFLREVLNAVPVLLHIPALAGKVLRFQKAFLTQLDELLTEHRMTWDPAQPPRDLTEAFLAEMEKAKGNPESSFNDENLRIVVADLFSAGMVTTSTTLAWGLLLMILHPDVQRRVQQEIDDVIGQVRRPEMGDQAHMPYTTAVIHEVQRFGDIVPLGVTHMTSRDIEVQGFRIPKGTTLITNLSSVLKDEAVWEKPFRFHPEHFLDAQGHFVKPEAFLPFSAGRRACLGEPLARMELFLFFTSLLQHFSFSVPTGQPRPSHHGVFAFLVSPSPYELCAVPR
Chain of Cytochrome P450 1A2 (P05177 whole entry): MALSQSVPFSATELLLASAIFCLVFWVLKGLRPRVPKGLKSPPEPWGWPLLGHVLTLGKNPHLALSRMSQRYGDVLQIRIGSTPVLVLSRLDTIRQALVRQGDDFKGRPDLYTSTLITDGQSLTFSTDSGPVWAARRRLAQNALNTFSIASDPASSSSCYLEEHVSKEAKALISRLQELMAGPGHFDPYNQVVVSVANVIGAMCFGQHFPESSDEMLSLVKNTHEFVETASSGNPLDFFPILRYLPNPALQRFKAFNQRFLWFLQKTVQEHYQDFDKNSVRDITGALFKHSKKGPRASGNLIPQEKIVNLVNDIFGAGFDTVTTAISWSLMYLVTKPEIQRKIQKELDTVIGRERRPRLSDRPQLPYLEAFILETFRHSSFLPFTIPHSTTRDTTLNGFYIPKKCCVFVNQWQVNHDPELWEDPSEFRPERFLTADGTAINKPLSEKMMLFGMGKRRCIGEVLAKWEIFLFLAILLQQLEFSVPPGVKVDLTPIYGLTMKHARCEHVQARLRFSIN
Chain of 5-hydroxytryptamine receptor 1A (Homo sapiens) (P08908 whole entry): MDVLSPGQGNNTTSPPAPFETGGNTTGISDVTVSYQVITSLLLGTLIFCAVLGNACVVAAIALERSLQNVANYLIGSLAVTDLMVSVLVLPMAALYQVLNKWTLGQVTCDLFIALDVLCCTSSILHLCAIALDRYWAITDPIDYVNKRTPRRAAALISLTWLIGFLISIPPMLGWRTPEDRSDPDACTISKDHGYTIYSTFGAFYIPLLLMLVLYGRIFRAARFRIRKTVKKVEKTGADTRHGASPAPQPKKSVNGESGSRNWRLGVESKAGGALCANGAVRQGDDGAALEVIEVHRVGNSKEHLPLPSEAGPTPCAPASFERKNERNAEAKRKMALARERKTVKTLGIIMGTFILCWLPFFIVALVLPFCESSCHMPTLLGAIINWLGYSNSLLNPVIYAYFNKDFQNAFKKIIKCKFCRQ

SMILES: O=S(=O)(c1cccc(Cl)c1)c1ccc2c(c1)O[C@H]1CNCC[C@@H]21 (racemic)
- IC50 [1]: 27 nM
- Ki [2]: 11 nM
- Ki [3]: 40 nM

SMILES: Cc1ccc(S(=O)(=O)c2ccc3c(c2)O[C@H]2CNCC[C@@H]32)cc1 (racemic)
- IC50 [1]: 245 nM
- Ki [2]: 64 nM
- Ki [3]: 236 nM

SMILES: CC(C)Oc1cccc(S(=O)(=O)c2ccc3c(c2)O[C@H]2CNCC[C@@H]32)c1.Cl (single isomer, unassigned; enantiomer 1)
- F (Rattus norvegicus [4]): 9%
- Ki [2]: 17 nM
- AUC (Rattus norvegicus [5]): 637 ng·h/mL

SMILES: O=S(=O)(c1ccccc1)c1cnc2c(N3CCNCC3)cccc2c1 [INTEPIRDINE]
- Vd (Rattus norvegicus [6]): 5.7 L/kg
- Kp [7]: 0.7
- bioavailability [8]: 24%
- t1/2 (Rattus norvegicus [9]): 42 min

SMILES: Cl.O=S(=O)(c1cccc(F)c1)c1ccc2c(c1)O[C@H]1CNCC[C@@H]21 (single isomer, unassigned; enantiomer 1)
- bioavailability [10]: < 1%
- Ki [2]: 11 nM
- AUC (Rattus norvegicus [5]): 0 ng·h/mL

SMILES: O=S(=O)(c1ccc2c(c1)O[C@H]1CNCC[C@@H]21)c1cccc(Cl)c1Cl (single isomer, unassigned; enantiomer 1)
- IC50 [1]: 40 nM
- Ki [2]: 5 nM

SMILES: COc1cc(OC(C)C)cc(S(=O)(=O)c2ccc3c(c2)O[C@H]2CNCC[C@@H]32)c1 (single isomer, unassigned; enantiomer 1)
- inhibition [11]: > 50%
- inhibition [12]: 6%
- inhibition [13]: 83%
- inhibition [14]: > 50%
- inhibition [15]: 6%
- inhibition [16]: 71%
- inhibition [17]: > 50%
- inhibition [18]: 19%
- inhibition [19]: > 50%
- inhibition [20]: 25%
- inhibition [21]: 62%
- inhibition [22]: 16%
- inhibition [23]: > 50%
- Activity (Rattus norvegicus [24]): Dose-dependent effect

SMILES: O=S(=O)(c1ccc2c(c1)O[C@H]1CNCC[C@@H]21)c1ccccc1-c1ccccc1 (racemic)
- IC50 [1]: 135 nM
- Ki [2]: 15 nM
- Ki [3]: 136 nM

SMILES: CC(C)Oc1cccc(S(=O)(=O)c2ccc3c(c2)O[C@H]2CNCC[C@@H]32)c1F (single isomer, unassigned; enantiomer 2)
- Ki [2]: 21 nM

SMILES: Cc1cccc(S(=O)(=O)c2ccc3c(c2)O[C@H]2CNCC[C@@H]32)c1 (racemic)
- IC50 [1]: 227 nM
- Ki [2]: 37 nM
- Ki [3]: 243 nM

SMILES: CC(C)Oc1cccc(S(=O)(=O)c2ccc3c(c2)O[C@H]2CNCC[C@@H]32)c1F (single isomer, unassigned; enantiomer 1)
- Ki [2]: 56 nM

SMILES: COc1cc(OC(C)C)cc(S(=O)(=O)c2ccc3c(c2)O[C@H]2CNCC[C@@H]32)c1.Cl (single isomer, unassigned; enantiomer 1)
- Activity (Rattus norvegicus [25]): 22%
- solubility [26]: > 130 µg/mL
- IC50 [27]: 7900 nM
- IC50 (Cytochrome P450 1A2): > 30000 nM
- IC50 (Cytochrome P450 2D6): > 30000 nM
- Vd (Rattus norvegicus [6]): 4.3 L/kg
- IC50 [28]: 3300 nM
- IC50 (Cytochrome P450 3A4): > 5900 nM
- IC50 (Cytochrome P450 2C9): > 30000 nM
- Kp [7]: 2.76
- IC50 [1]: 67 nM
- half-life [29]: > 40 min
- half-life [30]: > 40 min
- Ki [2]: 4 nM
- bioavailability [8]: 39%
- fraction unbound [31]: 0.027
- IC50 [32]: 4800 nM
- Ki [33]: 6200 nM
- IC50 [34]: 6300 nM
- IC50 [35]: 2200 nM
- IC50 (Cytochrome P450 2C19): > 22900 nM
- Ki [36]: 3700 nM
- solubility [37]: > 130 µg/mL
- Ki [3]: 27 nM
- half-life [38]: > 40 min
- half-life [39]: > 40 min
- Activity (Rattus norvegicus [40]): 21%
- IC50 [41]: 4400 nM
- IC50 [42]: 3900 nM
- Papp A→B [43]: 2.88 ×10⁻⁶ cm/s
- fraction unbound [44]: 0.046
- t1/2 (Rattus norvegicus [9]): 150 min
- Ki [45]: 19000 nM
- Activity (Rattus norvegicus [46]): 35%

SMILES: COCCOc1cccc(S(=O)(=O)c2ccc3c(c2)O[C@H]2CNCC[C@@H]32)c1 (racemic)
- Ki [2]: 562 nM

SMILES: COCCCOc1cccc(S(=O)(=O)c2ccc3c(c2)O[C@H]2CNCC[C@@H]32)c1 (racemic)
- Ki [2]: 203 nM

SMILES: CC(C)Oc1cccc(S(=O)(=O)c2ccc3c(c2)O[C@H]2CNCC[C@@H]32)c1 (racemic)
- IC50 [1]: 306 nM
- Ki [2]: 23 nM
- Ki [3]: 156 nM

SMILES: CC(C)Oc1cc(F)cc(S(=O)(=O)c2ccc3c(c2)O[C@H]2CNCC[C@@H]32)c1 (single isomer, unassigned; enantiomer 2)
- Ki [2]: 65 nM
